Values after ≈ are worked out from the molar mass of the structure shown.
Key:
Format in all cases: cell-based
[1] = test system: Pseudomonas Aeruginosa ATCC 27853; details: Mueller-Hinton broth, 37° C., 18 to 20 hours; for Minimal bactericidal concentration, Pseudomonas Aeruginosa ATCC 27853: plate counting on sheep blood agar
Protocol: (§1) Four strains were selected: Escherichia Coli ATCC 25922, Staphylococcus Aureus ATCC 25923, Pseudomonas Aeruginosa ATCC 27853 and a clinical isolated methicillin resistant Staphylococcus Aureus strain. Antibacterial activity of the molecules was tested by dilution method in Mueller-Hinton broth in order to determine the minimal inhibitory concentration (MIC) and the minimal bactericidal concentration (MBC). At least two independent assays were done. Stock solutions were obtained by solubilizing molecule powders in distilled water at concentration of 2.56 mg/mL and serial 2-fold diluted solutions were prepared. Bacterial inoculum was standardized by using direct suspensions of colonies from overnight growth in saline adjusted to a turbidity matching the 0.5 McFarland standard, and diluted to obtain a density comprised between 10^5 CFU/mL and 10^7 CFU/mL. Tubes containing 900 μL of inoculum with 100 μL of molecules solutions were incubated in air at 37° C. for 18 to 20 hours. Purity and inoculum density as well as percentage of viable bacteria in limpid tubes were checked by plate counting on sheep blood agar. Broth not containing any molecule solution was inoculated with each selected bacterial strain as a control for organism viability (growth control). The susceptibility of S. Aureus strains against vancomycin was used as an internal control as well as the activity of melittin.

[2] = test system: Escherichia Coli ATCC 25922; details: Mueller-Hinton broth, 37° C., 18 to 20 hours; for Minimal bactericidal concentration, Escherichia Coli ATCC 25922: plate counting on sheep blood agar
Protocol: as §1

[3] = test system: clinical isolated methicillin resistant Staphylococcus Aureus strain; assay: microbe, parasite or virus in culture; details: Mueller-Hinton broth, 37° C., 18 to 20 hours; for Minimal bactericidal concentration, clinical isolated methicillin resistant Staphylococcus Aureus strain: plate counting on sheep blood agar
Protocol: as §1

[4] = test system: Staphylococcus Aureus ATCC 25923; assay: microbe, parasite or virus in culture; details: for Minimal inhibitory concentration, Staphylococcus Aureus ATCC / Minimal bactericidal concentration, Staphylococcus Aureus ATCC: Mueller-Hinton broth, 37° C., 18 to 20 hours; for Minimal bactericidal concentration, Staphylococcus Aureus ATCC: plate counting on sheep blood agar
Protocol: as §1

| Structure (SMILES) | Minimal inhibitory concentration, Pseudomonas Aeruginosa ATCC 27853 [1] [µg/mL] | Minimal bactericidal concentration, Pseudomonas Aeruginosa ATCC 27853 [1] [µg/mL] | Minimal inhibitory concentration, Escherichia Coli ATCC 25922 [2] [µg/mL] | Minimal bactericidal concentration, Escherichia Coli ATCC 25922 [2] [µg/mL] | Minimal inhibitory concentration, clinical isolated methicillin resistant Staphylococcus Aureus strain [3] [µg/mL] | Minimal bactericidal concentration, clinical isolated methicillin resistant Staphylococcus Aureus strain [3] [µg/mL] | Minimal inhibitory concentration, Staphylococcus Aureus ATCC [4] [µg/mL] | Minimal bactericidal concentration, Staphylococcus Aureus ATCC [4] [µg/mL] | MIC ([3]; Staphylococcus aureus, read-out: Minimal inhibitory concentration, clinical isolated methicillin resistant Staphylococcus Aureus strain) [µg/mL] | MIC ([4]; Staphylococcus aureus, ATCC25923, read-out: Minimal inhibitory concentration, Staphylococcus Aureus ATCC) [µg/mL] |
| --- | --- | --- | --- | --- | --- | --- | --- | --- | --- | --- |
| CC(C)NC(=O)N[C@H](CNC(=O)N[C@@H](CCCCN)CNC(=O)N[C@H](CNC(=O)N[C@H](CNC(=O)N[C@@H](CCCCN)CNC(=O)N[C@H](CNC(=O)N[C@@H](CCCCN)CNC(=O)N[C@H](CCC(N)=O)C(C)C)Cc1c[nH]c2ccccc12)C(C)C)Cc1c[nH]c2ccccc12)C(C)C [Mol-4] | 128 (≈ 92.2 µM) | 256 (≈ 184 µM) | 32 (≈ 23.1 µM) | 64 (≈ 46.1 µM) | 16 (≈ 11.5 µM) | 64 (≈ 46.1 µM) | 8 (≈ 5.76 µM) | <16 | – | – |
| CC(C)NC(=O)N[C@H](CNC(=O)N[C@@H](CCCCN)CNC(=O)N[C@H](CNC(=O)N[C@H](CNC(=O)N[C@@H](CCCCN)CNC(=O)N[C@H](CNC(=O)N[C@@H](CCCCN)CNC(N)=O)Cc1c[nH]c2ccccc12)C(C)C)Cc1c[nH]c2ccccc12)C(C)C [Mol-8] | 64 (≈ 50.8 µM) | >256 | 32 (≈ 25.4 µM) | 256 (≈ 203 µM) | – | – | 32 (≈ 25.4 µM) | 32 (≈ 25.4 µM) | – | – |
| CC[C@H](C)[C@H](NC(=O)CN)C(=O)NCC(=O)N[C@@H](C)C(=O)N[C@H](C(=O)N[C@@H](CC(C)C)C(=O)N[C@@H](CCCCN)C(=O)N[C@H](C(=O)N[C@@H](CC(C)C)C(=O)N[C@H](C(=O)N[C@H](C(=O)NCC(=O)N[C@@H](CC(C)C)C(=O)N1CCC[C@H]1C(=O)N[C@@H](C)C(=O)N[C@@H](CC(C)C)C(=O)N[C@H](C(=O)N[C@@H](CO)C(=O)N[C@@H](Cc1c[nH]c2ccccc12)C(=O)N[C@H](C(=O)N[C@@H](CCCCN)C(=O)N[C@@H](CCCNC(=N)N)C(=O)N[C@@H](CCCCN)C(=O)N[C@@H](CCCNC(=N)N)C(=O)N[C@@H](CCC(N)=O)C(=O)N[C@@H](CCC(N)=O)C(N)=O)[C@@H](C)CC)[C@@H](C)CC)[C@@H](C)O)[C@@H](C)O)C(C)C)C(C)C [mellitin, reference compound] | >256 | >256 | – | >256 | 32 (≈ 11.2 µM) | 128 (≈ 45 µM) | – | – | – | – |
| CN[C@H](CC(C)C)C(=O)N[C@H]1C(=O)N[C@@H](CC(N)=O)C(=O)N[C@H]2C(=O)N[C@H]3C(=O)N[C@H](C(=O)N[C@H](C(=O)O)c4cc(O)cc(O)c4-c4cc3ccc4O)[C@H](O)c3ccc(c(Cl)c3)Oc3cc2cc(c3O[C@@H]2O[C@H](CO)[C@@H](O)[C@H](O)[C@H]2O[C@H]2C[C@](C)(N)[C@H](O)[C@H](C)O2)Oc2ccc(cc2Cl)[C@H]1O [vancomycin, reference compound] | – | – | – | – | – | – | – | – | 1 (≈ 0.69 µM) | 2 (≈ 1.38 µM) |
